What all share (type): binding
Assay [1] has as its target T1, HeLa cell extract proteins (Homo sapiens, UniProt Q9UII2).
T1 construct: endogenous in cells; host or cells: HeLa cell extract
T1 sequence (Q9UII2 26-106): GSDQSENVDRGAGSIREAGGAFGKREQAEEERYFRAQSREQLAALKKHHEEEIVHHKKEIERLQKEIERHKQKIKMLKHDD

Assay [2] addresses T2, HeLa cell extract proteins (Homo sapiens, UniProt P52209).
T2 construct: endogenous in cells; host or cells: HeLa cell extract
T2 sequence (P52209 1-483): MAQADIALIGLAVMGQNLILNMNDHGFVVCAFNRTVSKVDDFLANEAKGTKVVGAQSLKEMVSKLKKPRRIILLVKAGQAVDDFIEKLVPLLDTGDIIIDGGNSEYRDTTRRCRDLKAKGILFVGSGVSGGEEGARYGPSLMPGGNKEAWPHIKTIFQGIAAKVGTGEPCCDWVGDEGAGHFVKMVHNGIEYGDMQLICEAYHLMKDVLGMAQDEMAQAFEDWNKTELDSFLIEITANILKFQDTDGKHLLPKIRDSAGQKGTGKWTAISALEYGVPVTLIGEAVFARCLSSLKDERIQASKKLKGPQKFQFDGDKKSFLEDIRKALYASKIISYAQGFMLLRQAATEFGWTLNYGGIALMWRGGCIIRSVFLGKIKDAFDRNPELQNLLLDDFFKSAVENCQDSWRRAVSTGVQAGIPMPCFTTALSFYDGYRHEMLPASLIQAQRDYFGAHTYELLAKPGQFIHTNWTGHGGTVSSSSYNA

For assay [3], the target named is T3, HeLa cell extract proteins (Homo sapiens, UniProt Q96LA8).
T3 construct: endogenous in cells; host or cells: HeLa cell extract
T3 sequence (Q96LA8 whole entry): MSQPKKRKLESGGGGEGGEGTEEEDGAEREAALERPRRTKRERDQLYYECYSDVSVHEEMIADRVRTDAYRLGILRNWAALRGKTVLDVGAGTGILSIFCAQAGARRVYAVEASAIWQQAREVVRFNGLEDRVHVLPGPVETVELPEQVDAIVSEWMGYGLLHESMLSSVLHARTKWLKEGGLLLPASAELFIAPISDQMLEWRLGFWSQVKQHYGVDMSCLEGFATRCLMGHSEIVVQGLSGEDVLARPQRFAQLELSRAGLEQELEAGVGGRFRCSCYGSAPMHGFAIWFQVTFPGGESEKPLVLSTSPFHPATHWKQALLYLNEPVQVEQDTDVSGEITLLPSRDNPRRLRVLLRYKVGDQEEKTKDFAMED

For assay [4], the target named is T4, HeLa cell extract proteins (Homo sapiens, UniProt Q9ULX6).
T4 construct: endogenous in cells; host or cells: HeLa cell extract
T4 sequence (Q9ULX6 1-646): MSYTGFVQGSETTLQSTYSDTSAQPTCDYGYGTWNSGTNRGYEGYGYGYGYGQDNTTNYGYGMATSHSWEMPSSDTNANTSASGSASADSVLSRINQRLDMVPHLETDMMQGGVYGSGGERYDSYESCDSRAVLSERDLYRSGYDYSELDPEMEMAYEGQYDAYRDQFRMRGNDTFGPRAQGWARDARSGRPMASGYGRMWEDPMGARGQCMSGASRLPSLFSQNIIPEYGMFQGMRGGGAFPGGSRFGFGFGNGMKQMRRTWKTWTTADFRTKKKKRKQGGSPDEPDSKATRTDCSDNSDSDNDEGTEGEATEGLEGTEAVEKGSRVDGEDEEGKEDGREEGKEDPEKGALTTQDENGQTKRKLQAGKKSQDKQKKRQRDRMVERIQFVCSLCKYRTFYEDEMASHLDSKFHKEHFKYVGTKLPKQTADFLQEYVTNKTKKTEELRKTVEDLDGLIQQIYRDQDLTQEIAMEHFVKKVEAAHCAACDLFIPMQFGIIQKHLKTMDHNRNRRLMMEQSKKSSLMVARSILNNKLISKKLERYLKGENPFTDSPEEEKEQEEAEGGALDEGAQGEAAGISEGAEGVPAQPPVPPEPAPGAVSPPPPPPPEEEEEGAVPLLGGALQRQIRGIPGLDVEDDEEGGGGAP

Assay [5] addresses T5, HeLa cell extract proteins (Homo sapiens, UniProt P57740).
T5 construct: endogenous in cells; host or cells: HeLa cell extract
T5 sequence (P57740 1-925): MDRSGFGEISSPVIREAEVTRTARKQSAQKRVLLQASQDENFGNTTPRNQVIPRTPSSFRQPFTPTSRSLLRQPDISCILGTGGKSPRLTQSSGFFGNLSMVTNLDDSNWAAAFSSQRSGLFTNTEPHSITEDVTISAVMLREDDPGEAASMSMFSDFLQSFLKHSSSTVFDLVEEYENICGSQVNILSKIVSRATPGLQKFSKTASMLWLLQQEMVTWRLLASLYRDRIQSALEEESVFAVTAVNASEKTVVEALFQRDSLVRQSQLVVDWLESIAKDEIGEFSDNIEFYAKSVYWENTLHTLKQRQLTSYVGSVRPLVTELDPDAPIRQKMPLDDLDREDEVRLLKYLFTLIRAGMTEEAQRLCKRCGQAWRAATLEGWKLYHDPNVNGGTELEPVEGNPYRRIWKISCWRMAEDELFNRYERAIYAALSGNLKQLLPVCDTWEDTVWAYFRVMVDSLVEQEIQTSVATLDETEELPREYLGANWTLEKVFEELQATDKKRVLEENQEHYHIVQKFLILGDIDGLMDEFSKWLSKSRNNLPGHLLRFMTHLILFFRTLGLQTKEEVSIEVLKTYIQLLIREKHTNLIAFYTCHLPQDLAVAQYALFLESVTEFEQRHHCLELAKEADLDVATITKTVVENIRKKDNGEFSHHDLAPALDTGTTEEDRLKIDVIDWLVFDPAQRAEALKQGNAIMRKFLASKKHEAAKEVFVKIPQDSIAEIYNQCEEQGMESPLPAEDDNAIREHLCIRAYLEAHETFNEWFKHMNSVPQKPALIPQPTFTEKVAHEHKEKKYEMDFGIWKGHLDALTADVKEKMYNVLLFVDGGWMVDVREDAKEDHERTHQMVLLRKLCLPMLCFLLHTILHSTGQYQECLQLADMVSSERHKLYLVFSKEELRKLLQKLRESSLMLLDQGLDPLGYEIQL

The target of assay [6] is T6, HeLa cell extract proteins (Homo sapiens, UniProt O15162).
T6 construct: endogenous in cells; host or cells: HeLa cell extract
T6 sequence (O15162 1-318): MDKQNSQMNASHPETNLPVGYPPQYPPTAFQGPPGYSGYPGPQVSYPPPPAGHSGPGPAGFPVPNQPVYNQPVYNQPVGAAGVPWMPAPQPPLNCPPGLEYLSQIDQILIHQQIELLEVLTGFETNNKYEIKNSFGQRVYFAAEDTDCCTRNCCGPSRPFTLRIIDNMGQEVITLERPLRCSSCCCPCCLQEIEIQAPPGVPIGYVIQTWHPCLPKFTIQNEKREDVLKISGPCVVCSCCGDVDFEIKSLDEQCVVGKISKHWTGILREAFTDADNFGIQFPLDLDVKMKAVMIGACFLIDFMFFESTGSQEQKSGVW

Setting [7] is: HeLa, protein PGD (56 KDA PROTEIN.).
Where [8] appears, read: HeLa, protein PRMT6 (PROTEIN ARGININE N-METHYLTRANSFERASE 6).

Like-named read-outs stand apart in the source and are kept apart here.

Regarding `Nc1nc2cccc(-c3ccccc3)c2n1Cc1ccc(Cl)c(Cl)c1` [compound 3], the “fold changes relative to vehicle control” value in assay [1] (protein ATPIF1, HeLa) is recorded as 0.91; in assay [2] (setting [7]) it was 0.86 fold; in assay [3] (protein PRMT6, HeLa), 0.93; in assay [4] (captured protein AKAP8L, HeLa), 0.92; in assay [5] (HeLa, protein NUP107) it was 1.07; in assay [6] (HeLa, protein PLSCR1), 0.98.

As for `NCCOCCOCC(=O)Nc1nc2ncc(CNc3ccc(C(=O)NC(CCC(=O)O)C(=O)O)cc3)nc2c(=O)[nH]1` (stereo not drawn) [compound 6], the “fold changes relative to vehicle control” value is 1.91 in assay [1] (HeLa, protein ATPIF1); 1.35 in assay [2] (protein PGD, HeLa); 0.93 in assay [3] (setting [8]); 1.01 in assay [4] (HeLa, protein AKAP8L); 1.18 in assay [5] (HeLa, protein NUP107); 0.96 in assay [6] (HeLa, captured protein PLSCR1).

On to `Nc1nc2[nH]cc(CCc3ccc(C(=O)N[C@@H](CCC(=O)O)C(=O)O)cc3)c2c(=O)[nH]1` [PTX, pemetrexed], for which the “fold changes relative to vehicle control” value in assay [1] was found to be 1.84; in assay [2] it was 1.17; in assay [3], 1.03; in assay [4] it was 0.95; in assay [5], 0.98; in assay [6], 0.96.

As for `Nc1nc2c(c(=O)[nH]1)N(C=O)C(CNc1ccc(C(=O)N[C@@H](CCC(=O)O)C(=O)O)cc1)CN2` (stereo partly drawn) [LEU, leucovorin], the “fold changes relative to vehicle control” value in assay [1] (HeLa, protein ATPIF1) is 1; in assay [2] (protein PGD, HeLa) it was 0.97; in assay [3] (setting [8]) it was 1.17; in assay [4] (HeLa, protein AKAP8L), 1.01; in assay [5] (HeLa, protein NUP107), 1.01; in assay [6] (HeLa, captured protein PLSCR1) it was 1.01.

On to `CCCCCCOc1ccc(Cc2cnc(N)nc2N)cc1` [compound 1], for which the “fold changes relative to vehicle control” value is 0.97 in assay [1] (protein ATPIF1, HeLa); 1.44 fold in assay [2] (setting [7]); 1.01 in assay [3] (protein PRMT6, HeLa); 0.79 in assay [4] (captured protein AKAP8L, HeLa); 0.98 in assay [5] (HeLa, protein NUP107); 1.02 in assay [6] (HeLa, protein PLSCR1).

On to `NCCCNc1ccc(C(=O)NC(CCC(=O)O)C(=O)O)cc1` (stereo not drawn) [compound 7], for which the “fold changes relative to vehicle control” value is on record as 1.41 in assay [1] (HeLa, protein ATPIF1); 0.86 in assay [2] (protein PGD, HeLa); 1.01 in assay [3] (setting [8]); 1.08 in assay [4] (HeLa, protein AKAP8L); 1.26 in assay [5] (HeLa, protein NUP107); 1.07 in assay [6] (HeLa, captured protein PLSCR1).

Consider `CCCCCCOc1cccc(Cc2cnc(N)nc2N)c1` [compound 2], for which the “fold changes relative to vehicle control” value in assay [1] (protein ATPIF1, HeLa) worked out at 1.32; in assay [2] (setting [7]), 2.49 fold; in assay [3] (protein PRMT6, HeLa) it was 0.89; in assay [4] (captured protein AKAP8L, HeLa), 1.03; in assay [5] (HeLa, protein NUP107), 1.03; in assay [6] (HeLa, protein PLSCR1) it was 0.86.

For the origin of these results see paper PMC6199744, “Development of Chemical Proteomics for the Folateome and Analysis of the Kinetoplastid Folateome” (ACS Infectious Diseases, 2018).
